Assay results taken from paper PMC8518537, “N‐(Anilinoethyl)amide Melatonergic Ligands with Improved Water Solubility and Metabolic Stability” (Chemmedchem, 2021).
Values after ≈ are worked out from the molar mass of the structure shown. Read-outs that look alike come from different tables or passages of the source.

Assays:
[1] = Thermodynamic solubility, shake flask method; format: physicochemical; details: thermodynamic from solid, room temperature overnight, mean±SD, triplicate
Method: Thermodynamic solubility values were measured in two different buffers (pH 1.0; pH 7.4) by the shake flask method.[65] 1 mg of each compound was placed in 1 mL of appropriate buffer and shaken at room temperature overnight. The resulting suspension was centrifuged (10 min, 10000 g, 20 °C) and the supernatant analyzed by HPLC‐UV. Solubility values were interpolated from calibration curves prepared from concentrated DMSO stock solutions of each compound. Reported solubility values are the mean of three measurements±standard deviation.
It consisted of a LC‐10ADvp solvent delivery module, a 20 μL Rheodyne sample injector (Rheodyne LLC, Rohnert Park, CA, USA) and a SPD‐10Avp UV‐VIS detector. PeakSimple 2.83 software was employed for data acquisition and HPLC peak integration. […] Elution conditions were optimized for each compound at a flow rate of 1 mL min^−1 employing mobile phases consisting of water and acetonitrile at different percentages, while UV detection was set at λ = 254 nm.

[2] = Metabolic stability in human liver microsomes; format: in vitro ADME; details: for CLi Human LM (intrinsic clearance) / half-life at 5 μM: human liver microsomes 1 mg protein/mL, 5 μM compound, mean±SD; for CLi Human LM (intrinsic clearance): 37 °C; for half-life at 5 μM: NADPH-regenerating system, pH 7.4, 37 °C, read-out: t 1/2 Human LM
Method: (§1) Each compound (final concentration: 5 μM) was incubated in the presence of rat or human liver microsomes (final concentration: 1 mg protein/mL) and of a NADPH‐regenerating system (final concentrations: 2 mM NADP^+, 10 mM glucose‐6‐phosphate, 0.4 U mL^−1 glucose‐6‐phosphate dehydrogenase, 5 mM MgCl2) in a 10 mM Phosphate Buffered Saline (PBS) solution, pH 7.4, at 37 °C. Compound was added after a 10 min pre‐incubation at 37 °C and. at stated time points, depending on compound kinetics, sample aliquots were withdrawn, metabolic reaction was quenched by acetonitrile addition (1 : 2), and after a centrifugation step (9000 g, 10 min, 4 °C) the supernatant was analyzed by HPLC‐UV‐VIS.
(§2) Apparent half‐lives (t1/2 in min) for the metabolic clearance of compounds were calculated from the pseudo first‐order rate constants (k) obtained by linear regression of the log chromatographic peak area versus time plots and are reported as means of three experiments±standard deviation. Intrinsic clearance (CLi) values of the compounds were calculated using the following equation: CLi (μL×min^−1×mg protein^−1)=k×V where V (μL×mg protein^−1)=incubation volume/mg protein added.
(§3) Pooled rat and human liver microsomes (20 mg/mL) were supplied by BD Biosciences (BD Biosciences, Woburn, MA, USA). Acetonitrile and methanol were HPLC grade and were supplied by Sigma‐Aldrich (Sigma‐Aldrich srl, Milan, Italy). Water was freshly bidistilled before use. All other reagents were purchased in the highest purity available.
(§4) PeakSimple 2.83 software was employed for data acquisition and HPLC peak integration. HPLC columns were a RP‐C18 Supelco Discovery (Supelco, Bellefonte, PA, USA), 5 μm, 150×4.6 mm i.d. for all compounds except 13, and a Phenomenex Gemini, 5 μm, 150×4.6 mm i.d. for compound 13 (Phenomenex). Elution conditions were optimized for each compound at a flow rate of 1 mL min^−1 employing mobile phases consisting of water and acetonitrile at different percentages, while UV detection was set at λ = 254 nm. For compound 13, the mobile phase consisted of a 10 mM ammonium acetate buffer pH 7.0 and methanol and the UV detection was set at λ = 281 nm.

[3] = Experimental lipophilicity, shake-flask n-octanol/water; format: physicochemical; details: n-octanol/water (MOPS buffer); n-octanol/50 mM MOPS buffer pH 7.4, 25±1 °C; mean±SD of three; read-out: Log D oct,7.4
Method: Chosen buffer was 50 mM zwitterionic MOPS (3‐morpholinopropanesulfonic acid), pH 7.4 to avoid ionic couple partitioning, with ionic strength adjusted to 0.15 M by KCl addition. Compounds, after partitioning overnight, and dilution of both phases with methanol, were dosed in the HPLC‐UV system, as detailed below. Reported log D oct,7.4 values are the mean of three measurements±standard deviation.
HPLC columns were a RP‐C18 Supelco Discovery (Supelco, Bellefonte, PA, USA), 5 μm, 150×4.6 mm i.d. for all compounds except 13, and a Phenomenex Gemini, 5 μm, 150×4.6 mm i.d. for compound 13 (Phenomenex). Elution conditions were optimized for each compound at a flow rate of 1 mL min^−1 employing mobile phases consisting of water and acetonitrile at different percentages, while UV detection was set at λ = 254 nm. For compound 13, the mobile phase consisted of a 10 mM ammonium acetate buffer pH 7.0 and methanol and the UV detection was set at λ = 281 nm.

human MT2 receptors = target: T1, human MT2 receptors (Homo sapiens, UniProt P49286); experiment: Radioligand binding, 2-[125I]iodomelatonin competition at MT2; details: cloned human MT2 in CHO cells; from IC50 by Cheng-Prusoff; mean±SD of three determinations; read-out: MT2 K i
T1 sequence (P49286 1-362): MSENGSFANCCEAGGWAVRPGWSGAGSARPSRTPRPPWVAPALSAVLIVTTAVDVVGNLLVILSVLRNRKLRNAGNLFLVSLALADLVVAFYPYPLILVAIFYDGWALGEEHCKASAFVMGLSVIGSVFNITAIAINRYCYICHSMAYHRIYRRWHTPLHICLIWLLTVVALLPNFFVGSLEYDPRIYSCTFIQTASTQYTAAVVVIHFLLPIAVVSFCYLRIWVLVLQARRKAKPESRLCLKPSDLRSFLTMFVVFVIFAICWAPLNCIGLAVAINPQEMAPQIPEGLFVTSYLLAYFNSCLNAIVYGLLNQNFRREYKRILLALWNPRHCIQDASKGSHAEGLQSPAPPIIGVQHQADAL
Method: (§5) The in vitro pharmacology experiments were conducted at Cerep (Celle‐Lévescault, France) following radioligand binding and cellular functional assays developed elsewhere.[60, 61, 62]
(§6) After incubation, the % of radioligand binding inhibition was determined via a scintillation counting method. The radioligand binding experiments were performed in triplicate. IC50 values were determined by nonlinear regression analysis of the competition curves using Hill equation curve fitting. The pK i values were calculated from the IC50 values in accordance with the Cheng‐Prusoff equation.[28]

[4] = Metabolic stability in rat liver microsomes; format: in vitro ADME; details: for CLi Rat LM (intrinsic clearance) / half-life at 5 μM: rat liver microsomes 1 mg protein/mL, 5 μM compound, mean±SD; for CLi Rat LM (intrinsic clearance): 37 °C; for half-life at 5 μM: NADPH-regenerating system, pH 7.4, 37 °C, read-out: t 1/2 Rat LM
Method: as §1, §2, §3, §4

human MT1 receptors = human MT1 receptors (Homo sapiens, UniProt P48039); experiment: Radioligand binding, 2-[125I]iodomelatonin competition at MT1; details: cloned human MT1 in CHO cells; from IC50 by Cheng-Prusoff; mean±SD of three determinations; read-out: MT1 K i
human MT1 receptors, sequence (P48039 whole entry): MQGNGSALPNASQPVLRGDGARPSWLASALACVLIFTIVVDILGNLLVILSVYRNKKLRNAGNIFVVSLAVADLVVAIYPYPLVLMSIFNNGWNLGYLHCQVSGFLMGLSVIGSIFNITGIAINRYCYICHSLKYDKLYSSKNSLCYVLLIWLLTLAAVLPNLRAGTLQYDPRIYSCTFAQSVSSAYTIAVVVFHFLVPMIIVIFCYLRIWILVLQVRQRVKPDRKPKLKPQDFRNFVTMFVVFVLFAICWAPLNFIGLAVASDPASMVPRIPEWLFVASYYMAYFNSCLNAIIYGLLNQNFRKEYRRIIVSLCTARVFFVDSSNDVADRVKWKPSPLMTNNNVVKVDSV
Method: as §5, §6

[5] = buffer pH 1.0, simulated gastric fluid, pH 1.0 buffer, read-out: Solubility pH 1.0
[6] = buffer pH 7.4, aqueous buffer, pH 7.4 buffer, read-out: Solubility pH 7.4

Compound | solubility [1, 5] [µg/mL] | solubility [1, 6] [µg/mL] | CLi Human LM (intrinsic clearance) [2] [μL min^−1 mg prot^−1] | half-life at 5 μM [2] [min] | logD [3] | Ki (human MT2 receptors) [nM] | CLi Rat LM (intrinsic clearance) [4] [μL min^−1 mg prot^−1] | half-life at 5 μM [4] [min] | Ki (human MT1 receptors) [nM] | increase of human microsomal stability compared to UCM765 ([2]; human liver microsomes, versus UCM765) | increase of rat microsomal stability compared to UCM765 ([4]; rat liver microsomes, versus UCM765)
COc1cccc(N(CCNC(C)=O)c2ccccc2)c1 [Compound 2, N‐{2‐[(3‐methoxyphenyl)phenylamino]ethyl}acetamide, reference compound] | 125 ± 5 (≈ 440 µM) | 104 ± 5 (≈ 366 µM) | 17±1 | 40.8 ± 1.1 | 2.93 ± 0.01 | 0.29 ± 0.1 | 408±85 | 1.7 ± 0.4 | 1.6 ± 0.14 | – | –
CC(=O)NCCN(c1ccc(F)cc1)c1cccc(Br)c1 [Compound 3, N‐{2‐[(3‐bromophenyl)‐(4‐fluorophenyl)amino]ethyl}acetamide, reference compound] | 6.9 ± 0.1 (≈ 19.6 µM) | 5.1 ± 0.2 (≈ 14.5 µM) | 9.7±0.5 | 71.2 ± 3.4 | 3.84 ± 0.05 | 1.4 ± 0.08 | 38.1±6.0 | 18.2 ± 2.8 | > 100 | – | –
COc1cccc(N(CCNC(C)=O)c2ccncc2)c1 [Compound 13, N ‐{2‐[(3‐Methoxyphenyl)(pyridine‐4‐yl)amino]ethyl}acetamide] | > 1000 | 1020 ± 93.7 (≈ 3570 µM) | – | – | 0.41 ± 0.01 | > 100 | – | – | > 100 | – | –
COc1cccc(N(CCNC(C)=O)c2cccc(O)c2)c1 [Compound 15, N ‐{2‐[(3‐Hydroxyphenyl)(3‐methoxyphenyl)amino]ethyl} acetamide] | 95.9 ± 4.2 (≈ 319 µM) | 119 ± 2.8 (≈ 395 µM) | 10.5±0.4 | 66.2 ± 2.8 | 2.42 ± 0.02 | 1.4 ± 0.15 | 217.3±44.6 | 3.3 ± 0.6 | 53 ± 1.6 | approximately 1.5 fold | approximately 1.5 fold
COc1ccc(-c2ccccc2)c(N(C)CCNC(C)=O)c1 [Compound 18, N ‐{2‐[(4‐Methoxy‐[1,1’‐biphenyl]‐2‐yl)(methylamino)]ethyl}acetamide] | > 1000 | 340 ± 9.7 (≈ 1140 µM) | 61.9±3.8 | 11.2 ± 0.7 | 3.11 ± 0.02 | 1.7 ± 0.13 | 468.9±12.9 | 1.5 ± 0.1 | 32 ± 0.8 | – | –

The remaining molecules from weak to strong by Ki (human MT2 receptors), led by results:

solubility [1, 5] [µg/mL] | solubility [1, 6] [µg/mL] | CLi Human LM (intrinsic clearance) [2] [μL min^−1 mg prot^−1] | half-life at 5 μM [2] [min] | logD [3] | Ki (human MT2 receptors) [nM] | CLi Rat LM (intrinsic clearance) [4] [μL min^−1 mg prot^−1] | half-life at 5 μM [4] [min] | Ki (human MT1 receptors) [nM] | increase of human microsomal stability compared to UCM765 ([2]; human liver microsomes, versus UCM765) | increase of rat microsomal stability compared to UCM765 ([4]; rat liver microsomes, versus UCM765) | Compound
364 ± 3.7 (≈ 1280 µM) | 311.4 ± 2.6 (≈ 1090 µM) | 9.1±1.5 | 77.5 ± 13.4 | 2.65 ± 0.02 | 10 ± 0.13 | 44.2±1.0 | 15.7 ± 0.4 | > 100 | – | – | COc1cccc(N(CCNC(N)=O)c2ccccc2)c1 [Compound 6 a, 1‐{2‐[(3‐Methoxyphenyl)phenylamino]ethyl}urea]
> 1000 | 110 ± 6.9 (≈ 351 µM) | 96.7±6.3 | 7.2 ± 0.5 | 3.44 ± 0.02 | 2.1 ± 0.15 | 247.3±34.2 | 2.9 ± 0.5 | > 100 | – | – | COc1cccc(N(CCNC(C)=O)CCc2ccccc2)c1 [Compound 12, N ‐{2‐[(3‐Methoxyphenyl)(phenethyl)amino]ethyl}acetamide]
14.9 ± 0.6 (≈ 47.5 µM) | 10.2 ± 1.7 (≈ 32.5 µM) | 45.1±3.0 | 15.4 ± 1 | 3.3 ± 0.02 | 0.65 ± 0.03 | 98.1±6.8 | 7.1 ± 0.5 | 20 ± 0.45 | – | – | CCNC(=O)NCCN(c1ccccc1)c1cccc(OC)c1 [Compound 6 b, 1‐Ethyl‐3‐{2‐[(3‐methoxyphenyl)phenylamino]ethyl}urea]
